According to article PMC10739591, “mCherry on Top: A Positive Read-Out Cellular Platform for Screening DMD Exon Skipping Xenopeptide–PMO Conjugates” (Bioconjugate Chemistry, 2023):

Test system: DMD exon 23
Test: Splicing modulation in vivo (DMD exon 23 skipping, nested RT-PCR ex vivo)
Conditions: BALB/c mice, i.v., 375 µg PMO, 48 h after injection
Description: 6-week-old female BALB/c mice (BALB/cByJRj, Janvier, Le Genest-Saint-Isle, France) were housed in isolated ventilated cages under pathogen-free conditions with a 12 h light/dark interval. The mice were acclimated for 7 days prior to treatments. Water and food were provided ad libitum. For splice switching in the physiological DMD gene, PMO formulations were prepared 48 h before intravenous injection, as described above. The freeze-dried PMO formulations were reconstituted with HBG to obtain a concentration of 375 μg PMO per 150 μL. The mice were randomly divided into three groups (n = 6 for PMO(Ex23)-1395, and n = 5 for free 3′ primary amine-modified PMO(Ex23) and PMO(705)-1395). 150 μL of PMO solution was injected intravenously into a lateral tail vein. 48 h after injection, the mice were euthanized and the brain, spleen, quadriceps femoris muscle, kidneys, liver, lung, and heart were harvested. For stabilization of the mRNA, the organs were incubated in RNAlater solution (Thermo Fisher Scientific, Waltham) overnight at 4 °C and afterward stored at −20 °C. Each organ was manually homogenized using a mortar and pestle and liquid nitrogen. […]
The final PCR products were analyzed by agarose gel electrophoresis (2% agarose gel; 100 V; 2 h). Individual band intensities were quantified and put into relation to the band of full-length DMD-Ex20–24 with a size of 633 bp by using ImageJ software.

How did the “DMD exon 23 skipping in skeletal muscle (quadriceps femoris)” value turn out when “PMO(Ex23): PMO GGCCAAACCTCGGCTTACCTGAAAT with 3'-primary amine; targets donor splice site of DMD intron 23 (PMO, 3'-primary amine, chemistry not fully specified)” was run?
Its value is “predominant splice-switching activity in the skeletal muscle”.
